Peptide text beside a SMILES is read from it.

System in the first series: not given
Experiment: not given
Conditions: times the sweetness of sugar / sucrose; cited from earlier work.
With `COC(=O)[C@H](Cc1ccccc1)NC(=O)[C@@H](N)CC(=O)O` [aspartame] (H-Asp-Phe-OMe), the “sweetness relative to sugar (sucrose)” value is reported as “about 180 times”.
For `CC1=CC(=O)NS(=O)(=O)O1` [acesulfame potassium], the “sweetness relative to sugar (sucrose)” value is given as “about 200 times”.
Turning to `OC[C@H]1O[C@H](O[C@]2(CCl)O[C@H](CCl)[C@@H](O)[C@@H]2O)[C@H](O)[C@@H](O)[C@H]1Cl` [sucralose], the “sweetness relative to sugar (sucrose)” value is recorded as “about 600 times”.

Another series has as its system panelists trained about sensory attributes of sweeteners. In words: Evaluation of flavor by trained panelists (Example Q). Format: in vivo. The conditions noted are these: 300 mg/L in terms of Reb. A or Reb. D; sucrose 9 SEV; 5 panelists; 0 to 6 points, sucrose control = 3. As to the method:
In order to confirm effects of the three-component complex of erythritol/Reb. D/fructose, evaluation of flavor was made. Reb. A and Reb. D were also used, and sucrose was used as a control. Each of a two-component complex and a three-component complex was prepared as a solid according to the method of the working example so that about 3.6% of Reb. D was contained. Each of the complexes or Reb. A was subjected to adjustment by adding water thereto in a manner such that the amount in terms of Reb. A or Reb. D became 300 mg/L. The concentration of the sucrose solution was adjusted to be 9 SEV (sucrose equivalent value). Evaluation of taste quality was made by panelists trained about sensory attributes of sweeteners (5 members). The respective items of evaluation of flavor (on-set speed, lingering sweet aftertaste, bitterness intensity, lingering bitter aftertaste and comprehensive evaluation) were scored in a range of 0 to 6 points. As a reference, sucrose alone was used as a control (3 points). 6 points means high on-set speed of sweetness, short lingering sweet aftertaste, low bitterness intensity, short lingering bitter aftertaste and satisfactory overall evaluation.
Take `OC[C@H]1O[C@@](CO)(O[C@H]2O[C@H](CO)[C@@H](O)[C@H](O)[C@H]2O)[C@@H](O)[C@@H]1O` [Sucrose]: the Bitterness intensity turned out to be 3.00 points, the Comprehensive evaluation is recorded as 3.00 points, the Lingering bitter aftertaste worked out at 3.00 points and the Lingering sweet aftertaste is 3.00 points. The On-set speed was 3.00 points.
Take `C=C1C[C@@]23CC[C@H]4[C@@](C)(CCC[C@@]4(C)C(=O)O[C@@H]4O[C@H](CO)[C@@H](O)[C@H](O)[C@H]4O)[C@@H]2CC[C@]1(O[C@@H]1O[C@H](CO)[C@@H](O)[C@H](O[C@@H]2O[C@H](CO)[C@@H](O)[C@H](O)[C@H]2O)[C@H]1O[C@@H]1O[C@H](CO)[C@@H](O)[C@H](O)[C@H]1O)C3` [Reb. A, rebaudioside A]: the Bitterness intensity came to 2.10 points, the Comprehensive evaluation was determined as 1.70 points, the Lingering bitter aftertaste was determined as 1.70 points and the Lingering sweet aftertaste worked out at 1.70 points. The compound further came in with an On-set speed of 2.60 points.
`C=C1C[C@@]23CC[C@H]4[C@@](C)(CCC[C@@]4(C)C(=O)O[C@@H]4OC(CO)[C@@H](O)C(O)C4O[C@@H]4OC(CO)[C@@H](O)C(O)C4O)[C@@H]2CC[C@]1(O[C@@H]1OC(CO)[C@@H](O)C(O[C@@H]2OC(CO)[C@@H](O)C(O)C2O)C1O[C@@H]1OC(CO)[C@@H](O)C(O)C1O)C3` (some centres unmarked) [Reb. D, rebaudioside D] registered a Bitterness intensity of 2.10 points, a Comprehensive evaluation of 2.20 points, a Lingering bitter aftertaste of 2.40 points and a Lingering sweet aftertaste of 2.50 points. The compound further registered an On-set speed of 2.40 points.

System in a further series: not given
Experiment: not given
Conditions: not given
The series is classed as physicochemical. The text has this:
In an embodiment of the present invention, the content of Reb. D in the complex is an amount equal to or less than the saturation solubility relative to the at least one compound selected from the carbohydrates and the water-soluble vitamins and the salts thereof. The saturation solubility means an amount (mg) with which Reb. D is no longer dissolved in a melt of 1 g of the at least one compound selected from the carbohydrates and the water-soluble vitamins and the salts thereof. The saturation solubility varies depending on the type of the compound and the temperature of the melt, but can be easily and accurately confirmed by actually forming a melt and dissolving Reb. D therein. For example, when forming a melt by using erythritol, 112 mg of Reb. D is dissolved in 1 g of erythritol at 190° C. (i.e., 112 mg/g).
On to `C=C1C[C@@]23CC[C@H]4[C@@](C)(CCC[C@@]4(C)C(=O)O[C@@H]4OC(CO)[C@@H](O)C(O)C4O[C@@H]4OC(CO)[C@@H](O)C(O)C4O)[C@@H]2CC[C@]1(O[C@@H]1OC(CO)[C@@H](O)C(O[C@@H]2OC(CO)[C@@H](O)C(O)C2O)C1O[C@@H]1OC(CO)[C@@H](O)C(O)C1O)C3` (some centres unmarked) [Reb. D, rebaudioside D], for which the “saturation solubility of Reb. D in erythritol melt” value is recorded as 112 mg/g.

System in another series: not listed separately
In words: Evaluation of melting/dissolution (Example A): melting of auxiliary raw material and dissolution of Reb. D in the melt.
Conditions: not given
The method, then:
The meltability of a raw material to be combined with Reb. D (hereinafter also referred to as “the auxiliary raw material”) and the solubility of Reb. D were evaluated, and the auxiliary raw material with which the complex of the present invention can be obtained was examined. As the auxiliary raw material, raw materials described in the table below were selected from food additives that can be added to beverages. The raw materials used for forming the complex are as follows: Reb. D formulation (purity: 95% (w/w), manufactured by Jining Renewal and Joint International); D-allulose (purity: 99%+), arabinose (purity: 98%+), fructose (purity: 99%+), glucose (purity: 99%+), maltose monohydrate (purity: 95%+), mannitol (purity: 99%+), mannose (purity: 98%+), rhamnose (purity: 98%+), ribose (purity: 98%+), sucrose (purity: 99%+), xylitol (purity: 98%+) and xylose (purity: 98%+), trehalose dihydrate (purity: 98%+), sodium pantothenate (purity: 98%+) (each manufactured by NACALAI TESQUE, INC.); and erythritol (purity: 98% (w/w), manufactured by Mitsubishi-Chemical Foods Corporation). Also in the subsequent working examples, the raw materials described above were used unless otherwise stated.
The auxiliary raw material described in Table 1 was mixed with 100 mg of Reb. D formulation (purity: 95% (w/w)) in a heat-resistant vial, the temperature was elevated to the melting point of the auxiliary raw material or higher, and it was confirmed whether or not the auxiliary raw material was melted. After melting of the auxiliary raw material and dissolution of the Reb. D formulation were visually confirmed, the mixture was rapidly cooled in ice and stored at 10° C. The weight of the auxiliary raw material was adjusted based on the amount that enables dissolution of Reb. D. The weight of D-allulose (another name: D-psicose) was 2,000 mg, the weight of L-glutamine was 1,000 mg, the weight of vitamin D3 was 1,144 mg, and the weight of an auxiliary raw material other than those was 4,000 mg. The case where it was recognized that the auxiliary raw material was melted and that Reb. D was dissolved (including the case where dissolution was visually recognized more when compared to the point of adding (complete dissolution is not required)) was evaluated as “O”, and the case where it was not recognized that the auxiliary raw material was melted even at a temperature equal to or higher than the melting point of the auxiliary raw material, or the case where it was not recognized that Reb. D was dissolved though the auxiliary raw material was successfully melted (after the addition, change in outer appearance was not visually recognized) was evaluated as “X”.
`OC[C@@H](O)[C@@H](O)[C@H](O)[C@H](O)CO` [Mannitol]: the Melting/dissolution entry is “◯”.
Still for that read-out and setting: as for `CC(C)(CO)[C@@H](O)C(=O)NCCC(=O)[O-].[Na+]` [Sodium pantothenate], the entry is “◯”; as for `O=C(CO)[C@H](O)[C@H](O)[C@H](O)CO` [D-allulose], “◯”; as for `OC[C@H]1O[C@@](CO)(O[C@H]2O[C@H](CO)[C@@H](O)[C@H](O)[C@H]2O)[C@@H](O)[C@@H]1O` [Sucrose], “◯”.
The same measure, in the same setting: under `O=C[C@H](O)[C@H](O)[C@H](O)CO` [Ribose] stands “◯”.
On the same count and under the same terms, as for `OC[C@@H](O)[C@@H](O)CO` [Erythritol], the entry is “◯”; as for `OC[C@@H](O)[C@@H](O[C@H]1O[C@H](CO)[C@@H](O)[C@H](O)[C@H]1O)[C@H](O)[C@@H](O)CO` [Maltitol], “◯”; as for `OC[C@@H](O)[C@H](O)[C@@H](O)CO` [Xylitol], “◯”.
Regarding `C[C@H](O)[C@H](O)[C@@H](O)[C@@H](O)C=O` [Rhamnose], the Melting/dissolution result is on record as “◯”.
Same read-out and setting: as for `O=C(CO)[C@@H](O)[C@H](O)[C@H](O)CO` [Fructose], the entry is “◯”.
`O=C[C@H](O)[C@@H](O)[C@H](O)CO` [Xylose]: the Melting/dissolution result is “◯”.
Same read-out and setting: under `O=C[C@@H](O)[C@H](O)[C@H](O)CO` [Arabinose] stands “◯”; under `NC(=O)CC[C@H](N)C(=O)O` [L-glutamine], “◯”; under `O=C(O)CC(O)C(=O)O` (racemic) [DL-malic acid], “◯”.
Still for that read-out and setting: as for `OC[C@H]1O[C@H](O[C@H]2[C@H](O)[C@@H](O)C(O)O[C@@H]2CO)[C@H](O)[C@@H](O)[C@@H]1O` (mixture of isomers) [Maltose], the entry is “◯”.

The series is the same for the next values; noted with them: auxiliary raw material mixed with 100 mg of Reb. D formulation, heated to melting point or higher, visual.
Take `C=C1CC[C@H](O)C/C1=C/C=C1\CCC[C@]2(C)[C@@H]([C@H](C)CCCC(C)C)CC[C@@H]12` [Vitamin D3]: the Melting/dissolution result is “◯”.

Source of the values: patent US12662504B2, “High-solubility rebaudioside D complex” (SUNTORY HOLDINGS LIMITED, priority 2019, dated 2026).
